Measurements reported in ChEMBL document CHEMBL3407484, “Evolution in medicinal chemistry of ursolic acid derivatives as anticancer agents” (Eur J Med Chem, 2015).

Columns and labels:
Format in all cases: functional, cell-based
HepG2 = assay: Cytotoxicity against human HepG2 cells by MTT assay
HeLa = assay: Cytotoxicity against human HeLa cells by MTT assay
[1] = Cytotoxicity against human SKOV3 cells by MTT assay; settings: SK-OV-3
[2] = Cytotoxicity against human BGC823 cells by MTT assay; settings: BGC-823

With `C[C@H]1[C@H](C)CC[C@]2(C(=O)O)CC[C@]3(C)C(=CC[C@@H]4[C@@]5(C)CC[C@H](OC(=O)CCC(=O)OCCOc6no[n+]([O-])c6S(=O)(=O)c6ccccc6)C(C)(C)[C@@H]5CC[C@]43C)[C@H]12` as the compound, how does the IC50 (HepG2) read?
Its IC50 is 3.2 µM.

What does the source list for `CC(=O)O[C@H]1CC[C@]2(C)[C@H]3CC=C4[C@@H]5[C@@H](C)[C@H](C)CC[C@]5(C(=O)NCCCN5CCOCC5)CC[C@@]4(C)[C@]3(C)CC[C@H]2C1(C)C`?
IC50 (HeLa): 2.71 µM; IC50 [1]: 7.4 µM; IC50 [2]: 4.46 µM
